Data: patent publication US20250136559A1, “SMO MODULATOR COMPOUNDS” (OMASS THERAPEUTICS LIMITED, priority 2022, published 2025)

How the values were obtained:
Type in all cases: cell-based
[1] = molecular target: T1, mouse SMO^D473H (Mus musculus, UniProt P56726, D477H); experiment: Mouse assay: Gli1 qPCR in MEF cells stably expressing mouse SMO D473H; details: mSHh-treated, 24 hours; for IC50: Gli1 inhibition by qPCR, read-out: Mouse D473H pIC50 (converted); for Mouse D473H % Inh: percentage Gli1 inhibition
T1 construct: expressed in transfected cells
T1 sequence (P56726 33-793 D477H): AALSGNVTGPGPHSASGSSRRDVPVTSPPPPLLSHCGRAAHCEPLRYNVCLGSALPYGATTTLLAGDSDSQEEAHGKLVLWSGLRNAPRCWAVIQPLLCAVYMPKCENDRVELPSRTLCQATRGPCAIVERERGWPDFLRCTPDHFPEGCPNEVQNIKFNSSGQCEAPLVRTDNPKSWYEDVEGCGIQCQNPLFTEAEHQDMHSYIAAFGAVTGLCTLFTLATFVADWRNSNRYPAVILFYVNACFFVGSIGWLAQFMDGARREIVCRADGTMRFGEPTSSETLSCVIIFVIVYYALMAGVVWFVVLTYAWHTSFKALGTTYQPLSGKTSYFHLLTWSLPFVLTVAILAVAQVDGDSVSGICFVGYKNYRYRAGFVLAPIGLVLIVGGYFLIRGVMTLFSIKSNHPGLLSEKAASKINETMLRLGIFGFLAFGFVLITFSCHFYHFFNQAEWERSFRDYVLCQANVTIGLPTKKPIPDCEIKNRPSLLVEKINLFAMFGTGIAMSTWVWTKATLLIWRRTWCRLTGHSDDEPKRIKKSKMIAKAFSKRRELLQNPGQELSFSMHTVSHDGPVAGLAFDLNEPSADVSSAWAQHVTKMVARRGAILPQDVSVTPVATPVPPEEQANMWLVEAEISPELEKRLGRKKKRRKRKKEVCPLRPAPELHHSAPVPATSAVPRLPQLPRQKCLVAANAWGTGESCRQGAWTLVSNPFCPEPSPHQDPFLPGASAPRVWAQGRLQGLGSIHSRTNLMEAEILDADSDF
Procedure: (§1) Cell culture. All materials were purchased from Sigma-Aldrich, unless otherwise stated.
(§2) Compound treatment. […] After 1 hour incubation, cells were treated with assay medium containing mSHh prepared at 2.5× of final assay concentrations specified in the text and incubated for a further 24 hours at 37′C in a humidified 95% air/5% CO2 atmosphere prior to qPCR analysis.
(§3) Cell lysis and one-step qPCR. The Cells-to-CT™ 1-Step TaqMan® Kit was used in conjunction with TaqMan primer-probe assays for the detection of Gli1 (FAM, Mm00494654_m1) and Gusb (VIC, Mm01197698_m1) genes (all purchased from Life Technologies). Following 24 hours cell treatment, spent medium was removed and cells were washed with PBS before the application of lysis and stop solution as per manufacturer's instructions. The qPCR reactions were run in a 384-well PCR plate using master mix prepared according to manufacturer's instructions and cell lysate samples from treatment wells. Real-time PCR amplification was detected using the Bio-Rad CFX384 Touch PCR system. Four experimental replicates (two cell replicates and two qPCR replicates) were performed for each compound concentration tested. Real-time data were analysed using the CFX Maestro software (Bio-Rad) and obtained expression values were converted to percentage Gli1 inhibition by normalising to the average Gli1 expression of mSHh-treated control samples.

[2] = molecular target: T2, mouse SMO^WT (Mus musculus, UniProt P56726); experiment: Mouse assay: Gli1 qPCR in MEF cells stably expressing mouse SMO WT; details: mSHh-treated, 24 hours; for IC50: Gli1 inhibition by qPCR, read-out: Mouse WT pIC50 (converted); for Mouse WT % Inh: percentage Gli1 inhibition
T2 construct: expressed in transfected cells
T2 sequence (P56726 33-793): as the sequence (P56726 33-793 D477H) above, with H445D counted along it
Procedure: as §1, §2, §3

[3] = molecular target: T3, mouse SMO^W535L (Mus musculus, UniProt P56726, W539L); experiment: Mouse assay: Gli1 qPCR in MEF cells stably expressing mouse SMO W535L; details: mSHh-treated, 24 hours; for IC50: Gli1 inhibition by qPCR, read-out: Mouse W535L pIC50 (converted); for Mouse W535L % Inh: percentage Gli1 inhibition
T3 construct: expressed in transfected cells
T3 sequence (P56726 33-793 W539L): as the sequence (P56726 33-793 D477H) above, with H445D, W507L counted along it
Procedure: as §1, §2, §3

SMILES	IC50 [1]	Mouse D473H % Inh [1]	IC50 [2]	Mouse WT % Inh [2]	IC50 [3]	Mouse W535L % Inh [3]
O=C(Nc1ccc(-c2nc(CCc3ccccc3)n[nH]2)cc1)c1cccc(CN2CCS(=O)(=O)CC2)c1 [Example 3-31, 3-[(1,1-Dioxo-1,4-thiazinan-4-yl)methyl]-N-[4-[3-(2-phenylethyl)-1H-1,2,4-triazol-5-yl]phenyl]benzamide]	251 nM	97.2%	31.6 nM	98.6%	79.4 nM	64.1%
Cc1nc(-c2ccc(NC(=O)c3cccc(CN4CCS(=O)(=O)CC4)c3)cc2)oc1C [Example 4-1, N-[4-(4,5-Dimethyl-1,3-oxazol-2-yl)phenyl]-3-[(1,1-dioxo-1,4-thiazinan-4-yl)methyl]benzamide]	50.1 nM	98.6%	6.31 nM	99.2%	63.1 nM	78.6%
Cc1oc(-c2ccc(NC(=O)c3ccc(Cl)c(CN4CCS(=O)(=O)CC4)c3)cc2)nc1C1CC1 [Example 4-4, 4-Chloro-N-[4-(4-cyclopropyl-5-methyl-1,3-oxazol-2-yl)phenyl]-3-[(1,1-dioxo-1,4-thiazinan-4-yl)methyl]benzamide]	3.16 nM	98.5%	0.2 nM	99.5%	12.6 nM	79.0%
O=C(Nc1ccc(-c2cnc(C3CC3)o2)cc1)c1cccc(CN2CCS(=O)(=O)CC2)c1 [Example 4-5, N-[4-(2-Cyclopropyl-1,3-oxazol-5-yl)phenyl]-3-[(1,1-dioxo-1,4-thiazinan-4-yl)methyl]benzamide]	100 nM	99.7%	7.94 nM	99.9%	158 nM	63.2%
O=C(Nc1ccc(-c2cc(C3CC3)no2)cc1)c1cccc(CN2CCS(=O)(=O)CC2)c1 [Example 4-6]	79.4 nM	99.3%	12.6 nM	99.0%	126 nM	76.9%
O=C(Nc1ccc(-c2cc(C3CC3)on2)cc1)c1cccc(CN2CCS(=O)(=O)CC2)c1 [Example 4-7, N-[4-(5-Cyclopropyl-1,2-oxazol-3-yl)phenyl]-3-[(1,1-dioxo-1,4-thiazinan-4-yl)methyl]benzamide]	20 nM	99.3%	2.51 nM	98.8%	31.6 nM	76.0%
Cl.O=C(Nc1ccc(-c2nnc(C3CC3)o2)cc1)c1cccc(CN2CCS(=O)(=O)CC2)c1 [Example 4-8, N-[4-(5-Cyclopropyl-1,3,4-oxadiazol-2-yl)phenyl]-3-[(1,1-dioxo-1,4-thiazinan-4-yl)methyl]benzamide]	794 nM	94.9%	79.4 nM	98.9%	501 nM	65.9%
CN(C)c1nnc(-c2ccc(NC(=O)c3cccc(CN4CCS(=O)(=O)CC4)c3)cc2)o1 [Example 4-9, N-[4-[5-(Dimethylamino)-1,3,4-oxadiazol-2-yl]phenyl]-3-[(1,1-dioxo-1,4-thiazinan-4-yl)methyl]benzamide]	316 nM	99.1%	39.8 nM	99.6%	794 nM	70.0%
Cl.O=C(Nc1ccc(-c2nc(C3CC3)no2)cc1)c1cccc(CN2CCS(=O)(=O)CC2)c1 [Example 4-11, N-[4-(3-Cyclopropyl-1,2,4-oxadiazol-5-yl)phenyl]-3-[(1,1-dioxo-1,4-thiazinan-4-yl)methyl]benzamide]	158 nM	99.5%	50.1 nM	99.7%	158 nM	63.8%
Cl.O=C(Nc1ccc(-c2noc(C3CC3)n2)cc1)c1cccc(CN2CCS(=O)(=O)CC2)c1 [Example 4-12, N-[4-(5-Cyclopropyl-1,2,4-oxadiazol-3-yl)phenyl]-3-[(1,1-dioxo-1,4-thiazinan-4-yl)methyl]benzamide]	39.8 nM	99.8%	10 nM	99.6%	158 nM	57.8%
O=C(Nc1ccc(-c2noc(C3CCC3)n2)cc1)c1cccc(CN2CCS(=O)(=O)CC2)c1 [Example 4-13, N-[4-(5-Cyclobutyl-1,2,4-oxadiazol-3-yl)phenyl]-3-[(1,1-dioxo-1,4-thiazinan-4-yl)methyl]benzamide]	316 nM	99.0%	50.1 nM	98.8%	501 nM	77.4%
O=C(Nc1ccc(-c2noc(C3CCCC3)n2)cc1)c1cccc(CN2CCS(=O)(=O)CC2)c1 [Example 4-14, N-[4-(5-Cyclopentyl-1,2,4-oxadiazol-3-yl)phenyl]-3-[(1,1-dioxo-1,4-thiazinan-4-yl)methyl]benzamide]	200 nM	99.1%	10 nM	98.2%	794 nM	74.2%
O=C(Nc1ccc(-c2noc(Cc3ccccc3)n2)cc1)c1cccc(CN2CCS(=O)(=O)CC2)c1 [Example 4-15, N-[4-(5-Benzyl-1,2,4-oxadiazol-3-yl)phenyl]-3-[(1,1-dioxo-1,4-thiazinan-4-yl)methyl]benzamide]	31.6 nM	99.4%	6.31 nM	99.0%	31.6 nM	82.0%
Cc1ccc(Cc2nc(-c3ccc(NC(=O)c4cccc(CN5CCS(=O)(=O)CC5)c4)cc3)no2)cc1 [Example 4-16, 3-[(1,1-Dioxo-1,4-thiazinan-4-yl)methyl]-N-[4-[5-[(4-methylphenyl)methyl]-1,2,4-oxadiazol-3-yl]phenyl]benzamide]	12.6 nM	98.8%	2 nM	97.5%	20 nM	72.5%
O=C(Nc1ccc(-c2noc(Cc3ccc(Cl)cc3)n2)cc1)c1cccc(CN2CCS(=O)(=O)CC2)c1 [Example 4-18, N-[4-[5-[(4-Chlorophenyl)methyl]-1,2,4-oxadiazol-3-yl]phenyl]-3-[(1,1-dioxo-1,4-thiazinan-4-yl)methyl]benzamide]	15.8 nM	99.2%	2.51 nM	98.7%	39.8 nM	82.7%
O=C(Nc1ccc(-c2cc(C3CC3)n[nH]2)cc1)c1ccc(Cl)c(CN2CCS(=O)(=O)CC2)c1 [Example 4-20, 4-chloro-N-[4-(5-cyclopropyl-1H-pyrazol-3-yl)phenyl]-3-[(1,1-dioxo-1,4-thiazinan-4-yl)methyl]benzamide]	31.6 nM	98.4%	2.51 nM	99.1%	10 nM	51.6%
O=C(Nc1ccc(-c2cc(Cc3ccccc3)n[nH]2)cc1)c1cccc(CN2CCS(=O)(=O)CC2)c1 [Example 4-21, N-[4-(3-Benzyl-1H-pyrazol-5-yl)phenyl]-3-[(1,1-dioxo-1,4-thiazinan-4-yl)methyl]benzamide]	63.1 nM	99.4%	6.31 nM	99.3%	39.8 nM	76.6%
Cn1nc(-c2ccc(NC(=O)c3ccc(Cl)c(CN4CCS(=O)(=O)CC4)c3)cc2)cc1C1CC1 [Example 4-24, 4-Chloro-N-[4-(5-cyclopropyl-1-methylpyrazol-3-yl)phenyl]-3-[(1,1-dioxo-1,4-thiazinan-4-yl)methyl]benzamide]	7.94 nM	98.1%	0.631 nM	97.9%	10 nM	70.0%
Cc1c(-c2ccc(NC(=O)c3cccc(CN4CCS(=O)(=O)CC4)c3)cc2)nn(C)c1C1CC1 [Example 4-25, N-[4-(5-Cyclopropyl-1,4-dimethylpyrazol-3-yl)phenyl]-3-[(1,1-dioxo-1,4-thiazinan-4-yl)methyl]benzamide]	5.01 nM	98.6%	0.398 nM	98.3%	15.8 nM	65.7%
Cl.Cn1nc(-c2ccc(NC(=O)c3cccc(CN4CCS(=O)(=O)CC4)c3)cc2)nc1C1CC1 [Example 4-27, N-[4-(5-cyclopropyl-1-methyl-1,2,4-triazol-3-yl)phenyl]-3-[(1,1-dioxo-1,4-thiazinan-4-yl)methyl]benzamide]	50.1 nM	98.5%	6.31 nM	99.5%	158 nM	77.7%
